Assay results from patent publication US5962534A, “Regulating gene expression using retinoids with CH2 OH or related groups at the side chain terminal position” (Cornell Research Foundation, Inc., priority 1997, dated 1999).

How the values were obtained:
RAR-α = target: T1, RAR-α (Mus musculus, UniProt P11416); assay: Competitive binding of 3H-all-trans-retinoic acid to RAR-α; conditions: concentration to inhibit 50% binding of 3H-all-trans-retinoic acid (10 nM); mean ± SD, at least 3 replicate experiments
T1 construct: expressed in transfected cells; host or cells: COS-1
T1 sequence (P11416 1-462): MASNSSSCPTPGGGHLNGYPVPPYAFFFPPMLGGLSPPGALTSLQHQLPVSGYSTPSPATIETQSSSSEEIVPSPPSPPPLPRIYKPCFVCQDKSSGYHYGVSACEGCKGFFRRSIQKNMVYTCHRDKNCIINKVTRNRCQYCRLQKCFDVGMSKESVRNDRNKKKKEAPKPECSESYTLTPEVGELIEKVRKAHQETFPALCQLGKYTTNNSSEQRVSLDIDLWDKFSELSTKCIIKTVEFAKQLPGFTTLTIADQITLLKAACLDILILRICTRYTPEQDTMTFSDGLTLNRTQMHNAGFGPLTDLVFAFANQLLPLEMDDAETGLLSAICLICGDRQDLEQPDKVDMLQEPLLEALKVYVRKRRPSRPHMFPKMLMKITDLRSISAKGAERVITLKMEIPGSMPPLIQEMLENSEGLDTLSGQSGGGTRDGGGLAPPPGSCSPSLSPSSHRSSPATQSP
Procedure: (§4) Retinoids were assayed for their ability to bind members of the family of the retinoic acid receptors, the RARs, as follows:
(§5) COS-1 cells were transfected by DEAE-dextran with pSG5 expression vectors containing cDNAs for mouse RARs α, β, or γ or RXRs α, β, or γ. […] Nucleosol or cytosol fractions were prepared as described in Nervi, C., et al (30) and Nervi, C., et al (31) and stored at -70° C. until use. Aliquots of nucleosol or cytosol were incubated in nuclei lysis buffer as described in Nervi, C., et al (30) with tritiated ligands for 4 h at 4° C. […] For competitive binding assays, the incubations were performed with increasing concentrations of unlabeled competing ligand and a fixed concentration of the radioligand (10 nM ^3 H-retinoic acid). In saturation kinetic studies, incubations were performed in the presence of increasing concentrations of the indicated radioligand. For all binding assays, bound was separated from free radioactivity as described in Levin, A. A., et al (29).

[1] = tested on: cellular retinoic acid binding protein I (CRABP I); assay: Inhibition of all-trans-3H-retinoic acid binding to CRABP I; conditions: data not shown
[2] = tested on: RARE-β-galactosidase (F9-RARE-β-galactosidase reporter cell line); assay: Transcription of RARE-β-galactosidase in F9-RARE-β-galactosidase reporter cell line; assay type: cell-based; conditions: Mus musculus; media lacking serum
Procedure: Cells were treated with different concentrations of retinoids in media lacking serum, harvested and assayed for β-galactosidase activity. […] The β-galactosidase activity in this cell line reflects the activation of the RARs.

Hoxa-1 = Hoxa-1 gene expression in F9 stem cells by Northern blot; assay type: cell-based; conditions: Mus musculus, F9, 72 h, read-out: Hoxa-1 transcripts induction
Text: Teratocarcinoma stem cells can be induced to differentiate in monolayer culture by retinoic acid over a 3-4 day period into nonmalignant endoderm cells resembling the extraembryonic endoderm of the mouse blastocyst as described in Gudas, L. J., et al (27). The F9 teratocarcinoma stem cell line is used as a model tumor cell differentiation system because F9 stem cells share similar biochemical, immunological and morphological characteristics with early mouse embryonic stem cells and additionally, large numbers of cells can be cultured and experimentally manipulated. The expression of several homeobox genes including Hoxa-1 is induced by RA in mouse teratocarcinoma cell lines as described in LaRosa, G. J., et al (34) and LaRosa, G. J., et al (35). […] See LaRosa, G. L, et al (34). Other genes such as laminin B1 are activated subsequent to the activation of Hox 1.6 by retinoic acid as described in Vasios, G. W., et al (36).

[3] = Metabolism / half-life of retinoids in F9 cells; assay type: in vitro ADME, mouse; conditions: mouse; 50 nM; F9 stem or differentiating cells; FIG. 5
Procedure: (§1) ^3 H-4-hydroxyretinol and ^3 H-4-oxo-retinol were purified from RA treated, differentiated F9 cells (ATCC CRL 1720) after the differentiated cells were incubated with ^3 H-retinol for 18 h. The identities of purified ^3 H-4-hydroxyretinol and ^3 H-4-oxo-retinol were verified by matching both the elution times on the HPLC and the spectra of known standards.
(§2) F9 stem cells or retinoic acid-treated cells (72 h) were cultured in the presence of 50 nM of either ^3 H-4-hydroxyretinol or ^3 H-4-oxo-retinol for different periods of time.
(§3) FIGS. 5A-5D depict HPLC analysis after incubation in the presence of 50 nM ^3 H-4-oxo-retinol for periods of time as indicated and extraction using the method described in McClean, S. W., et al (15). The results are the same in both stem and retinoic acid- treated cells.

F9 stem cells [4] = assay: Metabolism / half-life of retinoids in F9 cells; assay type: in vitro ADME, mouse
Procedure: as §1, §2, §3

[5] = tested on: acute promyelocytic leukemia; assay: Treatment of acute promyelocytic leukemia patients; assay type: in vivo, human; conditions: oral, 100 mg/square meter per day
Procedure: Patients with morphologic diagnostic criteria for acute promyelocytic leukemia (M3 or M3 variant subtype) by karyotyping or PCR analysis, including the […] (q22; q12-21) translocation, are treated with oral all-trans-4-oxo-retinol at a dose of 100 mg/square meter of body surface area per day. The drug is formulated in soft gelatin capsules which are administered once or twice a day to provide the dose as stated. The drug is administered for 40 to 60 days until remission induction occurs as indicated by normal karyotype, disappearance of coagulation abnormalities (e.g., increased platelet count and plasma fibrinogen level), observation of differentiation of cancer cells and the appearance of mature granulocytic markers in cell surface immunophenotyping, as indicated by reduced number of cells expressing CD33 and greater portion of cells expressing CD16. Patients with newly diagnosed disease then receive all-trans-4-oxo-retinol for 30 days after remission induction; then, either conventional consolidation therapy (e.g., cytosine arabinoside) or continued treatment with all-trans-4-oxo-retinol alone is continued. During remission induction, liver function tests are performed and serum cholesterol and triglycerides are measured twice a week and bone marrow aspiration is performed once a week until complete remission or failure is documented.

F9 stem cells [6] = assay: Intracellular concentration in differentiating F9 stem cells; assay type: in vitro ADME, mouse; conditions: calculated
RAR-β = target: T2, RAR-β (Mus musculus, UniProt P22605); assay: Competitive binding of 3H-all-trans-retinoic acid to RAR-β
T2 sequence (P22605 1-448 isoform P22605-3): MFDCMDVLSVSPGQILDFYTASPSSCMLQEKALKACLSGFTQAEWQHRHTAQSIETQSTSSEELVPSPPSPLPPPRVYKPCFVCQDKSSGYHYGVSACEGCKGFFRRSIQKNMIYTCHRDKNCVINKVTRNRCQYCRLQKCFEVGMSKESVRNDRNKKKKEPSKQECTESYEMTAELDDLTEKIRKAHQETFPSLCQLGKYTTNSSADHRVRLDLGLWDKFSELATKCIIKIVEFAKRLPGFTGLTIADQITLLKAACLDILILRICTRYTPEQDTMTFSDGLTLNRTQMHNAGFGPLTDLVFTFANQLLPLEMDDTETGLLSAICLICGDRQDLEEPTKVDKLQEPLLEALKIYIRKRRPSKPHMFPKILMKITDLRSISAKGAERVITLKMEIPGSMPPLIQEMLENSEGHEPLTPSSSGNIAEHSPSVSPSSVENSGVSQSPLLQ
Procedure: as §4, §5

CC1=C(/C=C/C(C)=C/C=C/C(C)=C/CO)C(C)(C)CCC1=O [4-oxo-retinol, all-trans-4-oxo-retinol]
IC50 (RAR-α): 330 ± 54 nM
inhibition of binding of all-trans-3H-retinoic acid to CRABP I [1]: unable to inhibit
EC50 [2]: 42 nM
fold induction at 1 µM (Hoxa-1): 25
half-life at 0.05 µM [3]: > 15 h
half-life in F9 stem cells (F9 stem cells [4]; 50 nM, order of magnitude in words): on the order of days
metabolites of 4-oxo-retinol detected (F9 stem cells [4]; 50 nM, presumed 4-oxo-retinyl esters): small amounts of several very hydrophobic retinoids
stability in F9 stem vs differentiating cells (F9 stem cells [4]; comparison of F9 stem and differentiating cells): equally stable
induction of enzyme degrading the retinoid (F9 stem cells [4]; summary statement, vs all-trans-retinoic acid): does not induce production of enzyme which degrades it to inactive form
4-oxo-retinoic acid formed from 4-oxo-retinol (F9 stem cells [4]; up to 15 h, 50 nM): No 4-oxo-retinoic acid was detected
outcome of treatment in acute promyelocytic leukemia [5]: Long term cures are considered to be obtainable
intracellular concentration (F9 stem cells [6]): approximately 85 nM
IC50 (RAR-β): 420 ± 110 nM
